Measurements published in patent US20140064053A1, “NON-RESONANT TWO-PHOTON ABSORPTION MATERIAL, NON-RESONANT TWO-PHOTON ABSORPTION RECORDING MATERIAL, RECORDING MEDIUM, RECORDING/REPRODUCING METHOD AND NON-RESONANT TWO-PHOTON ABSORPTION COMPOUND” (FUJIFILM Corporation, priority 2011, published 2014).

Tests used:
[1] = Two-photon absorption cross-sectional area by the Z scanning method; format: physicochemical; conditions: measurement wavelength 405 nm; chloroform solution, about 1×10^−3 mol/l; 1 GM = 1 × 10^−50 cm^4 s molecule^−1 photon^−1
Method: The measurement of the two-photon absorption cross-sectional area of the synthesized compound was performed by the Z scanning method described in MANSOOR SHEIK-BAHAE et al., IEEE. Journal of Quantum Electronics, 1990, 26, 760. The Z scanning method is a method widely used as the measuring method of a non-linear optical constant, where in the vicinity of the focus of converged laser beam, a measurement sample is moved along the beam and the change in the quantity of transmitted light is recorded. Since the power density of incident light changes depending upon the position of the sample, when non-linear absorption is present, the quantity of transmitted light attenuates in the vicinity of the focus. The two-photon absorption cross-sectional area was computed by fitting the change in the quantity of transmitted light to a theoretical curve predicted from the incident light intensity, the light converging spot size, the sample thickness and the sample concentration. As the light source for the measurement of two-photon absorption cross-sectional area, a Ti:sapphire pulsed laser (pulse width: 100 fs, repetition: 80 MHz, average output: 1 W, peak power: 100 kW) obtained by combining a […] and a light parametric amplifier was used. As the sample for the measurement of two-photon absorption cross-sectional area, a solution obtained by dissolving the compound in chloroform in a concentration of about 1×10^−3 mol/l was used.
The two-photon absorption cross-sectional areas of Compounds D-1, D-2, D-6 and D-29 of the present invention and Comparative Compound R-1 [recited as Compound D-1 in Patent Document 5 (JP-A-2010-108588)] are shown in Table 1 below.

[2] = Evaluation of solubility of two-photon absorption compound in dichloromethane; format: physicochemical; conditions: invention compounds compared with Comparative Compound R-1
Method: Compounds D-1, D-2, D-6 and D-29 of the present invention and Comparative Compound R-1 for dichloromethane were evaluated for the solubility (room temperature).

For `CCCCC(CC)COc1ccc(C(=O)c2ccc(-c3ccc(-c4ccc(-c5ccc(C#N)cc5)cc4)cc3)cc2)cc1` [Compound D-1], the “Two-Photon Absorption Cross-Sectional Area” value [1] was 900 GM and the “Solubility (in words)” value [2] was “high solubility”.

With `COCCOCCOCCOCCOCCOc1ccc(C(=O)c2ccc(-c3ccc(-c4ccc(-c5ccc(C#N)cc5)cc4)cc3)cc2)cc1` [Compound D-2] the “Two-Photon Absorption Cross-Sectional Area” value [1] was 860 GM and the “Solubility (in words)” value [2] was “high solubility”.

For `CCCCC(CC)COc1ccc(C(=O)c2ccc(-c3ccc(-c4ccc(-c5ccc(C#N)cc5)c(OC)c4)cc3OC)cc2)cc1` [Compound D-6], the “Two-Photon Absorption Cross-Sectional Area” value [1] was 1140 GM and the “Solubility (in words)” value [2] was “high solubility”.

In the case of `COc1cc(-c2ccc(-c3ccc(C(=O)c4ccc(OCCOCCOC(C)=O)c(OCCOCCOC(C)=O)c4)cc3)c(OC)c2)ccc1-c1ccc(C(=O)c2ccc(OCCOCCOC(C)=O)c(OCCOCCOC(C)=O)c2)cc1` [Compound D-29], the “Two-Photon Absorption Cross-Sectional Area” value [1] is reported as 2000 GM and the “Solubility (in words)” value [2] is reported as “high solubility”.

With `N#Cc1ccc(-c2ccc(-c3ccc(-c4ccc(C(=O)c5ccccc5)cc4)cc3)cc2)cc1` [Compound R-1, reference compound] the “Two-Photon Absorption Cross-Sectional Area” value [1] was 1700 GM and the “Solubility (in words)” value [2] was “low”.
